Some test systems named below: 786-0 renal; A498 renal; CAKI-1 renal; HOP-62 NSCLC; HS 578T breast; IGROV1 ovarian; MCF7 breast; MDA-N; OVCAR-4 ovarian; OVCAR-8 ovarian; RPMI-8226 leukemia; RXF 393 renal; SK-MEL-2 melanoma; SR leukemia; T-47D breast; UACC-257 melanoma; UACC-62 melanoma; MALME-3M melanoma.
Common to all, as to test: NCI-60 cell line screen, 48 h

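Test compounds were applied to cells in 96-well plates for 48 hours at 5 doses. TGI: total growth inhibition.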

Turning to `COc1ccc(C2=CC(C(C)=C(C(N)=O)C(N)=O)C=C(c3ccc(Br)cc3)C2)c(OC)c1` (stereo unspecified), the TGI in the assay on 786-0 renal, in the assay on A498 renal, in the assay with CAKI-1 renal, with HOP-62 NSCLC, in the assay on HS 578T breast and in the assay with IGROV1 ovarian was over 100 µM each time. Moreover, the TGI with MCF7 breast, in the assay on MDA-N, in the assay on OVCAR-4 ovarian, with OVCAR-8 ovarian, in the assay on RPMI-8226 leukemia and with RXF 393 renal was over 100 µM each time. Also, the TGI in the assay on SK-MEL-2 melanoma, with SR leukemia, in the assay on T-47D breast, in the assay with UACC-257 melanoma and in the assay on UACC-62 melanoma was over 100 µM throughout.
Consider `Cc1ccc(Nc2nc(NNC(=O)Cc3ccccc3)nc(NNC(=O)c3ccncc3)n2)cc1`, for which the TGI in the assay with 786-0 renal, with A498 renal, with CAKI-1 renal, in the assay on HOP-62 NSCLC, with HS 578T breast and in the assay on IGROV1 ovarian was over 10 µM each time. Further, the TGI with MALME-3M melanoma, in the assay on MCF7 breast, in the assay with MDA-N, with OVCAR-4 ovarian, in the assay on OVCAR-8 ovarian and in the assay with RPMI-8226 leukemia was over 10 µM in each case. Besides, the TGI in the assay with SR leukemia, in the assay with T-47D breast, in the assay with UACC-257 melanoma and with UACC-62 melanoma was over 10 µM each time.
Regarding `C=C1C(=O)O[C@@H]2/C=C(C)/C=C\[C@@H]3O[C@@]3(C)C[C@@H](O)C12` (stereo partly specified), the TGI with 786-0 renal is 21.1 µM; in the assay on A498 renal, 30.4 µM; with CAKI-1 renal, 21 µM; in the assay with HOP-62 NSCLC it was over 100 µM; in the assay with HS 578T breast it was over 100 µM; with IGROV1 ovarian, 28.6 µM. Besides, the TGI in the assay with MALME-3M melanoma is 30.9 µM; in the assay on MCF7 breast, 26.4 µM; in the assay with MDA-N, over 100 µM; in the assay with OVCAR-4 ovarian, 38.2 µM; in the assay on OVCAR-8 ovarian it was 55.1 µM; in the assay on RPMI-8226 leukemia it was 18.7 µM. Besides, the TGI was 76.4 µM in the assay with RXF 393 renal; over 100 µM in the assay on SK-MEL-2 melanoma; 23.6 µM in the assay on T-47D breast; 28.1 µM with UACC-257 melanoma; 27.2 µM in the assay with UACC-62 melanoma.
Take `C[C@]12c3c4cc(NC(=O)C(=O)NCc5ccc(-c6ccccn6)nc5)cc3Oc3cc(NC(=O)C(=O)NCc5ccc(-c6ccccn6)nc5)cc(c31)OC1C=C(NC(=O)C(=O)NCc3ccc(-c5ccccn5)nc3)C=C(O4)C12` (stereo partly specified): the TGI in the assay with 786-0 renal is 75.5 µM; with CAKI-1 renal, 93.4 µM; in the assay on HOP-62 NSCLC it was over 100 µM; in the assay with HS 578T breast it was over 100 µM; in the assay with IGROV1 ovarian, 40.6 µM; with MCF7 breast, over 100 µM. Further, the TGI with MDA-N was over 100 µM; in the assay on OVCAR-4 ovarian, 29.8 µM; in the assay with OVCAR-8 ovarian, over 100 µM; in the assay with RPMI-8226 leukemia, over 100 µM; with RXF 393 renal, over 100 µM; with SK-MEL-2 melanoma, over 100 µM. For the same compound, the TGI was 51.9 µM in the assay on SR leukemia, 97.9 µM in the assay on T-47D breast, over 100 µM in the assay with UACC-257 melanoma and 79.1 µM with UACC-62 melanoma.
As for `N#C/C(N)=C(\C#N)NC=NCCO`, the TGI with 786-0 renal, in the assay with A498 renal, with CAKI-1 renal, in the assay with HOP-62 NSCLC, in the assay on HS 578T breast and in the assay on IGROV1 ovarian was over 100 µM in each case. The TGI in the assay with MALME-3M melanoma, in the assay with MCF7 breast, in the assay with MDA-N, with OVCAR-4 ovarian, in the assay on OVCAR-8 ovarian and in the assay on RPMI-8226 leukemia was over 100 µM each time. In addition, the TGI with SK-MEL-2 melanoma, in the assay with SR leukemia, in the assay on T-47D breast, with UACC-257 melanoma and in the assay on UACC-62 melanoma was over 100 µM throughout.
Regarding `Cc1ccc2nc(-c3ccccc3)cc(=O)n2c1`, the TGI in the assay on 786-0 renal, with HOP-62 NSCLC, in the assay on HS 578T breast, with IGROV1 ovarian, with MALME-3M melanoma and in the assay on MCF7 breast was over 100 µM throughout. The TGI in the assay with MDA-N, with OVCAR-4 ovarian, in the assay with OVCAR-8 ovarian, in the assay on RPMI-8226 leukemia, in the assay with RXF 393 renal and in the assay on SR leukemia was over 100 µM in each case. Further, the TGI in the assay on T-47D breast and with UACC-62 melanoma was over 100 µM each time.
With `CCOC(=O)c1nnn(CCCCO)c1C(=O)OCC`, the TGI in the assay on 786-0 renal, in the assay with CAKI-1 renal, with HOP-62 NSCLC, with HS 578T breast, in the assay with IGROV1 ovarian and in the assay on MALME-3M melanoma was over 100 µM in each case. Further, the TGI in the assay with MCF7 breast, with MDA-N, in the assay on OVCAR-4 ovarian, with OVCAR-8 ovarian, in the assay on RXF 393 renal and in the assay on SK-MEL-2 melanoma was over 100 µM throughout. Further, the TGI in the assay with SR leukemia, in the assay on T-47D breast, with UACC-257 melanoma and in the assay with UACC-62 melanoma was over 100 µM throughout.
Turning to `Nc1ncc2c(n1)-c1ccccc1OC2N1CCCCC1` (stereo unspecified), the TGI in the assay on 786-0 renal, in the assay with A498 renal, in the assay on CAKI-1 renal, in the assay with HS 578T breast, in the assay on IGROV1 ovarian and in the assay on MCF7 breast was over 100 µM in each case. Further, the TGI in the assay on MDA-N, in the assay with OVCAR-4 ovarian, in the assay with OVCAR-8 ovarian, in the assay with RPMI-8226 leukemia, with RXF 393 renal and in the assay on SK-MEL-2 melanoma was over 100 µM in each case. In addition, the TGI in the assay on SR leukemia, in the assay with T-47D breast, with UACC-257 melanoma and in the assay with UACC-62 melanoma was over 100 µM throughout.
With `COc1ccc(NC(=S)c2ccc(CN3CCCCC3)s2)cc1`, the TGI with 786-0 renal was found to be 36.7 µM; in the assay on A498 renal, 31.5 µM; in the assay with CAKI-1 renal, 77.3 µM; with HOP-62 NSCLC, 52.7 µM; in the assay with HS 578T breast, 43.8 µM; with IGROV1 ovarian it was 49.2 µM. Moreover, the TGI was 37.6 µM in the assay with MALME-3M melanoma; 33.3 µM in the assay on MCF7 breast; 36.7 µM with MDA-N; over 100 µM with OVCAR-4 ovarian; 45.4 µM in the assay on OVCAR-8 ovarian; 74.7 µM in the assay on RPMI-8226 leukemia. The TGI with SK-MEL-2 melanoma worked out at 36.9 µM; with SR leukemia it was 51.8 µM; in the assay with T-47D breast it was 60.7 µM; in the assay on UACC-257 melanoma it was 35.6 µM; in the assay on UACC-62 melanoma, 32.8 µM.

Source of the values: PubChem BioAssay (NCI).
